We go through 3 molecules from publication PMC1257591, “In Vitro Inhibition of Human Hepatic and cDNA-Expressed Sulfotransferase Activity with 3-Hydroxybenzo[a]pyrene by Polychlorobiphenylols” (Environmental Health Perspectives, 2005).

Assay [1] deals with SULT1E1. On the set-up: method as in Ma et al. 2003. To be noted: ref Ma et al. 2003; cited from earlier work.
Assay [2] relates to SULT1A3. Details: method as in Ma et al. 2003. To be noted: ref Ma et al. 2003; cited from earlier work.
In a further assay the test system is SULT1A1. Details: method as in Ma et al. 2003. To be noted: ref Ma et al. 2003; cited from earlier work.
Assay [3] has as its target HL cytosol 3-OH-BaP sulfotransferase (Homo sapiens, UniProt P50225). Briefly: Kinetics of 3-OH-BaP sulfotransferase inhibition by 4′-OH-CB112 in HL cytosol. The assay is classed as biochemical. The method, then: To study the type of inhibition produced by OH-PCBs, we used 4′-OH-CB112 (B5) as a model inhibitor. We prepared four sets of assay tubes containing HL cytosol and varying amounts of 3-OH-BaP from 35 to 150 nM: one set (control) contained no 4′-OH-CB112; the other sets contained 0.25 μM, 0.5 μM, or 1.0 μM 4′-OH-CB112.
(§1) We calculated the effects of OH-PCBs on 3-OH-BaP SULT activity as percentage inhibition compared with the controls without an inhibitor. We obtained IC50 values by fitting log OH-PCB concentration and percent control activity to a sigmoidal curve. We examined the relationships between IC50 and physicochemical properties of the OH-PCBs by linear correlation analysis. We calculated the inhibitory constant (Ki) from the kinetic studies with 4′-OH-CB112 by means of Dixon plots and plots of Km/Vmax against inhibitor concentration ([Cornish-Bowden 1995]).

The target in assay [4] is HL cytosol sulfotransferase (Homo sapiens, UniProt P50225). Nature of the assay: Kinetics of 3-OH-BaP sulfonation by human liver cytosol (fluorimetric assay of BaP-3-SO4 formation). The assay is classed as biochemical. The method, then: F.P. Guengerich (Vanderbilt University) kindly donated the samples of human liver, which were procured from organ donors ([Guengerich 1995]). We prepared liver cytosolic fractions from four livers by standard methods and stored aliquots at −80°C until use ([Wang et al. 2004]). We used three or four of these cytosol fractions in each experiment.
(§2) We determined SULT activity with 3-OH-BaP as substrate by a fluorimetric assay of BaP-3-SO4 product formation, as described previously ([Wang et al. 2004]). […] Duplicate tubes were prepared for each incubation condition. We examined the kinetics of sulfonation in three liver cytosol fractions by systematically varying the concentration of 3-OH-BaP or PAPS. When the variable substrate was 3-OH-BaP, we used 12 concentrations in the range from 0.035 to 2.00 μM, and the concentration of PAPS was kept constant at 10 μM. When we varied PAPS, we used 7 concentrations from 0.157 to 10.0 μM and kept the concentration of 3-OH-BaP constant at 0.100 μM.
(§3) We calculated the enzyme kinetic parameters from studies with variable concentrations of 3-OH-BaP using nonlinear regression analysis and GraphPad 4.0 software (GraphPad Software, San Diego, CA). We selected the built-in Michaelis-Menten equation for most analyses. Where we found evidence of 3-OH-BaP substrate inhibition, we fit the data into an equation derived from a two-substrate model ([Zhang et al. 1998]): […]
(§4) This equation denoted the constant for binding of the first substrate (S) molecule as Km and the second substrate molecule as Ki. V1 is the maximum rate for the noninhibitory substrate concentration range, and V2 is the minimum rate in the inhibitory substrate concentration range

For assay [5], the target named is T1, SULT1A1*2 (Homo sapiens, UniProt P50225, R213H).
T1 construct: purchased PanVera (Madison, WI); host or cells: Sf-9
Nature of the assay: Kinetics of 3-OH-BaP sulfonation by expressed SULT1A1*2. To be noted: expressed SULT1A1*2. The assay is classed as biochemical.
Text: (§5) The expression of human SULT1A1*1, SULT1A3, SULT1B1, and SULT1E1 in Escherichia coli has been described previously ([Dajani et al. 1998]; [Wang et al. 1998]). We grew E. coli cells containing the respective sulfotransferase genes as described previously ([Falany et al. 1990], [1994]), and prepared 100,000g supernatant fractions for use in inhibition studies and for partial purification of the SULT enzymes. We purchased expressed SULT1A1*2 cytosolic extract from PanVera (Madison, WI) and used it as supplied.
as §2
We determined the kinetic parameters for 3-OH-BaP sulfonation by partially purified preparations of the cDNA-expressed SULT isozymes under incubation conditions similar to those used for liver cytosol. For SULT1A1*1 and -1A1*2, we used seven substrate concentrations in the range from 5 to 100 nM; for SULT1E1 we used […] 3-OH-BaP concentrations from 15.6 to 1,000 nM; and for SULT1A3 and 1B1 we used seven concentrations of 3-OH-BaP from 0.25 to 5.0 μM.
as §3, §4

The target of assay [6] is T2, SULT1A3 (Homo sapiens, UniProt P0DMM9).
T2 construct: made in house; host or cells: Escherichia coli
Nature of the assay: Kinetics of 3-OH-BaP sulfonation by partially purified cDNA-expressed SULT1A3. The assay is classed as biochemical. To be noted: concentration range up to 5 μM.
Text: as §5
(§6) The 100,000g supernatant fractions of SULT1A1*1, SULT1A3, SULT1B1, and SULT1E1 were partially purified by chromatographic methods ([Falany et al. 1990], [1994]). […] We analyzed active fractions by SDS-PAGE ([Laemmli 1970]) to assess the purity of each SULT enzyme. We stained the gels with Coomassie R-250 reagent and determined the percentage of protein present as each respective SULT enzyme by scanning densitometry.
(§7) We determined SULT activity with 3-OH-BaP as substrate by a fluorimetric assay of BaP-3-SO4 product formation, as described previously ([Wang et al. 2004]). […]
(§8) We determined the kinetic parameters for 3-OH-BaP sulfonation by partially purified preparations of the cDNA-expressed SULT isozymes under incubation conditions similar to those used for liver cytosol. […]

Assay [7] concerns the target T3, SULT1B1 (Homo sapiens, UniProt O43704).
T3 construct: made in house; host or cells: Escherichia coli
Nature of the assay: Kinetics of 3-OH-BaP sulfonation by partially purified cDNA-expressed SULT1B1. The assay is classed as biochemical. To be noted: concentration range up to 5 μM.
Text: as §5, §6, §7, §8

Assay [8] deals with T4, SULT1A1*1 (Homo sapiens, UniProt P50225).
T4 construct: made in house; host or cells: Escherichia coli
Nature of the assay: Kinetics of 3-OH-BaP sulfonation by partially purified cDNA-expressed SULT1A1*1. The assay is classed as biochemical.
Text: as §5, §6, §7, §8

In assay [9] the target is T5, SULT1E1 (Homo sapiens, UniProt P49888).
T5 construct: made in house; host or cells: Escherichia coli
T5 sequence (P49888 1-294): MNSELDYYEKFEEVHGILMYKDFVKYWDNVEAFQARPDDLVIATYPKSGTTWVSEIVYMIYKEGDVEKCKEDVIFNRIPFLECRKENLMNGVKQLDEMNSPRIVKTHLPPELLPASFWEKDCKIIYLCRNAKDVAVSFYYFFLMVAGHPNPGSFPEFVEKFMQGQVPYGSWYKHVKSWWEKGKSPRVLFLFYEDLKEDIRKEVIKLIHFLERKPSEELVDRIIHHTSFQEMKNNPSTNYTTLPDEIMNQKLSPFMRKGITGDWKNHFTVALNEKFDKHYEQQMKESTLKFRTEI
Briefly: Kinetics of 3-OH-BaP sulfonation by partially purified cDNA-expressed SULT1E1. The assay is classed as biochemical.
Text: as §5, §6, §7, §8

In assay [10] the target is T3, SULT1B1. Briefly: Inhibition of 3-OH-BaP sulfotransferase activity by OH-PCBs with cDNA-expressed SULT1B1. To be noted: 1.0 μM 3-OH-BaP; mean of duplicates; read-out: IC50 SULT1B1. The assay is classed as biochemical.
Text: as §5, §2
(§9) For each OH-PCB, we examined the concentration dependence of inhibition with three liver cytosol fractions, as well as with cytosol fractions from the E. coli expressing SULT1A1*1, SULT1A3, SULT1B1, and SULT1E1, and the purchased Sf-9 cytosol fraction (PanVera, Madison, WI) containing SULT1A1*2. For studies with HL cytosol, SULT1A1*1, and SULT1E1, we examined two concentrations of 3-OH-BaP, 0.1 μM and 1.0 μM.
as §1

The target in assay [11] is T1, SULT1A1*2. Briefly: Inhibition of 3-OH-BaP sulfotransferase activity by OH-PCBs with expressed SULT1A1*2. The assay is classed as biochemical. To be noted: 0.1 μM 3-OH-BaP; mean of duplicates; read-out: IC50 SULT1A1*2.
Text: as §5, §2, §9, §1

Assay [12] deals with T2, SULT1A3. Nature of the assay: Inhibition of 3-OH-BaP sulfotransferase activity by 50 μM OH-PCBs with cDNA-expressed SULT1A3. The assay is classed as biochemical. To be noted: 50 μM OH-PCB; 1.0 μM 3-OH-BaP.
Text: as §5, §2, §9, §1

Assay [13] has as its target T5, SULT1E1. Nature of the assay: Inhibition of 3-OH-BaP sulfotransferase activity by OH-PCBs with cDNA-expressed SULT1E1. The assay is classed as biochemical. To be noted: mean of duplicates, read-out: IC50 SULT1E1.
Text: as §5, §2, §9, §1

In assay [14] the target is T4, SULT1A1*1. Briefly: Inhibition of 3-OH-BaP sulfotransferase activity by OH-PCBs with cDNA-expressed SULT1A1*1. The assay is classed as biochemical. To be noted: mean of duplicates, read-out: IC50 SULT1A1*1.
Text: as §5, §2, §9, §1

Where [15] appears, read: HL 2 cytosol (heterozygous SULT1A1*1/*2).
The mark [16] stands for this setting: HL 3 cytosol (homozygous SULT1A1*2).

SMILES strings stand for the structures. Several values for one entry are separate records, joined by “and”; a condition that tells them apart may be missing. Identical values can stand only once. Like-named read-outs stand apart in the source and are kept apart here.

Sequence of HL cytosol sulfotransferase (P50225 whole entry): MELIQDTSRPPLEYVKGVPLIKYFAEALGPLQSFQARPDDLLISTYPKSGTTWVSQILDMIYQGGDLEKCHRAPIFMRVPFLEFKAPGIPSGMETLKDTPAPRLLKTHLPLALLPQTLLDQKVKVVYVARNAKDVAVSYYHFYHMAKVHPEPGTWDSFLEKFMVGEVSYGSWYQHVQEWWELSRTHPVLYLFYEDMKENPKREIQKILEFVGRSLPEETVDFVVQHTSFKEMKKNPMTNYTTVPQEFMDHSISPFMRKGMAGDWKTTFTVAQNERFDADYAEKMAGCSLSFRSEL
Sequence of HL cytosol 3-OH-BaP sulfotransferase (P50225 whole entry): as above
T1 sequence (P50225 whole entry R213H): as the sequence (P50225 whole entry) above, with R213H counted along it
T3 sequence (O43704 whole entry): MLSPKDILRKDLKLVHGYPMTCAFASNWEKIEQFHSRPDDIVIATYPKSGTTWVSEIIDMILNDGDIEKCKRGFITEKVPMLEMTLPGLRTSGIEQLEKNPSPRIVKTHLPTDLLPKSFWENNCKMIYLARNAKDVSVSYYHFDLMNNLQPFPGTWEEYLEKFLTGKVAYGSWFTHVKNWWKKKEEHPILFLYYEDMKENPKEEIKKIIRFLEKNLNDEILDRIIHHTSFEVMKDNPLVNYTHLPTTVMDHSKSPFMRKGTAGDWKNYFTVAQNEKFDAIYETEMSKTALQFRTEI
T2 sequence (P0DMM9 whole entry): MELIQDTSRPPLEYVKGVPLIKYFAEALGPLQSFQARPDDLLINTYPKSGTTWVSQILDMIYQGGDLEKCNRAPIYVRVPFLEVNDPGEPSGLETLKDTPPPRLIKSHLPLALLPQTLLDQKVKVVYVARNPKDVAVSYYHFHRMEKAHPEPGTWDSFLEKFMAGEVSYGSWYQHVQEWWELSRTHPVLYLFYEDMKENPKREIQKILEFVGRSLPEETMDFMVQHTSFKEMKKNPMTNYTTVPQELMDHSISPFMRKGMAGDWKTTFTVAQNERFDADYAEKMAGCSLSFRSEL

For the molecule `Oc1ccc2ccc3cccc4ccc1c2c34` [1-hydroxypyrene], the Michaelis-Menten constant (Km) (commonly the substrate concentration at which the rate is half of its maximum) was 0.021 µM with SULT1E1 [1], 0.8 µM in the assay on SULT1A3 [2] and 0.008 µM with SULT1A1.

For the molecule `Oc1ccc2ccc3c4ccccc4cc4ccc1c2c43` [Compound 3-OH-BaP, 3-hydroxybenzo[a]pyrene], the “Vmax (3-OH-BaP sulfotransferase activity)” value in assay [3] (0 μM B5, mean ± SD n = 3) amounted to 69.1 ± 8.0 B pmol/min/mg protein. Also, the V1 is 121 pmol/min/mg protein in [4] (HL 1 cytosol (homozygous SULT1A1*1), maximum rate, noninhibitory substrate range); 93.0 pmol/min/mg protein in assay [4] (setting [15]); 94 pmol/min/mg protein and 94.4 pmol/min/mg protein in assay [4] (setting [16]); 102 ± 15.8 pmol/min/mg protein in [4] (HL cytosol, mean ± SD of three livers); 4,400 pmol/min/mg protein at SULT1A1*2 [5]. Also, the V2 was 2 pmol/min/mg protein in assay [4] (HL 1 cytosol (homozygous SULT1A1*1), minimum rate, inhibitory substrate range); 38.50 pmol/min/mg protein in [4] (setting [15]); 31.0 pmol/min/mg protein in assay [4] (setting [16]); 290 pmol/min/mg protein on SULT1A1*2 [5]. For the same molecule, the “3-OH-BaP concentration resulting in a decrease in activity (substrate inhibition)” value in assay [4] (HL cytosol) is above 0.15 µM. The Ki on SULT1A1*2 [5] (substrate inhibition) came out at 0.16 µM. Besides, the substrate inhibition result at SULT1A3 [6] and on SULT1B1 [7] was “did not exhibit substrate inhibition” in each case. In addition, the “3-OH-BaP concentration showing substrate inhibition” value on SULT1A1*1 [8] and at SULT1E1 [9] was above 0.15 µM each time.

For `Oc1ccc(-c2c(Cl)c(Cl)cc(Cl)c2Cl)cc1Cl` [Compound B5, 4′-OH-CB112], the half-maximal inhibitory concentration (IC50) (commonly the concentration that inhibits the measured activity by half) was determined as 86.5 µM at SULT1B1 [10]; 1.48 µM at SULT1A1*2 [11]; 5.35 µM at SULT1E1 [13] (0.1 μM 3-OH-BaP); 23.2 µM on SULT1E1 [13] (1.0 μM 3-OH-BaP); 1.17 µM on SULT1A1*1 [14] (0.1 μM 3-OH-BaP); 42.5 µM on SULT1A1*1 [14] (1.0 μM 3-OH-BaP). The type of inhibition result in [3] (3-OH-BaP 35 to 150 nM) is “noncompetitive”. Besides, the “Vmax (3-OH-BaP sulfotransferase activity)” value in assay [3] (in presence of 0.25 μM B5, two livers) is reported as 56.3 ± 6.0 B pmol/min/mg protein; in assay [3] (in presence of 0.5 μM B5, n = 3) it was 41.2 ± 3.3 C pmol/min/mg protein; in assay [3] (in presence of 1.0 μM B5, n = 3), 33.3 ± 3.2 D pmol/min/mg protein. The “inhibition of 3-OH-BaP sulfonation by SULT1A3” value on SULT1A3 [12] is on record as “did not inhibit”.
